Key:
F508del CFTR [1] = target: T1, F508del CFTR (Homo sapiens, UniProt P13569, DEL508-508); experiment: Equivalent current assay in primary CF airway epithelial cells (Corrector Activity, NAUC normalized to 3 μM VX809); type: cell-based; settings: NAUC as % of positive control (VX-809)
T1 construct: Primary CF airway epithelial cells were obtained from the UNC Cystic Fibrosis Tissue Procurement and Cell Culture Core; host or cells: primary CF airway epithelial cells
In short: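 Readout is NAUC: current area from forskolin/potentiator addition until CFTR-172, minus vehicle, relative to 3 μM VX809 (=1.0). Cells were primary CF epithelia at air-liquid interface ≥4 weeks, given basolateral compound for 24 h at 37° C; median of n≥4 replicates, sigmoid fit with nH fixed at 1.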

F508del CFTR [2] = target: T1, F508del CFTR; experiment: CoPo (corrector plus potentiator) equivalent current assay in primary CF airway epithelial cells, test compound added back as potentiator, no VX-770; type: cell-based; parameters: key: +++: NAUC>70% of positive control; ++: NAUC 70-40% of positive control; +: NAUC<40% of positive control; O: no positive response; settings: CoPo as % of positive control (VX-809 + acute VX-770)
Protocol: It was noticed that many of the test compounds had potentiator activity in addition to corrector activity. These compounds have been denoted as CoPos by FDL and others. To measure both the corrector and potentiator activity of a compound the following changes were made to the test conditions. Cells were treated as usual with the test compounds for at least 24 hours before the experiment. 30 minutes prior to the experiment the test compound is added back to the testing solution to act as a potentiator and no VX-770 (the standard CFTR potentiator) was used with the test compound. The negative control was no longer just DMSO (no corrector) but changed to VX-809 (the standard corrector) plus VX-770 treatment for at least 24 hours. 30 minutes prior to the experiment both VX-809 and VX-770 were added back to the testing solution. This treatment led to a smaller response than the positive control of correcting F508del CFTR with VX-809 alone for at least 24 hours and adding VX-770 acutely with the forskolin addition (just as in the corrector assay).
A CoPo reading of zero means that the test compound has the same forskolin stimulated response as VX-809+VX-770 treatment for 24 hours. A CoPo reading of 1.0 means the test compound has the same forskolin response as cell treated with VX-809 and stimulated with forskolin+VX-770. CoPo activity “+++” refers to an observed CoPo>70% of positive control; CoPo activity “++” refers to an observed CoPo 70-40% of positive control; CoPo activity “+” refers to an observed CoPo<40% of positive control and “O” refers to no positive response.

T1 sequence (P13569 with tags, fused parts or gaps DEL508-508): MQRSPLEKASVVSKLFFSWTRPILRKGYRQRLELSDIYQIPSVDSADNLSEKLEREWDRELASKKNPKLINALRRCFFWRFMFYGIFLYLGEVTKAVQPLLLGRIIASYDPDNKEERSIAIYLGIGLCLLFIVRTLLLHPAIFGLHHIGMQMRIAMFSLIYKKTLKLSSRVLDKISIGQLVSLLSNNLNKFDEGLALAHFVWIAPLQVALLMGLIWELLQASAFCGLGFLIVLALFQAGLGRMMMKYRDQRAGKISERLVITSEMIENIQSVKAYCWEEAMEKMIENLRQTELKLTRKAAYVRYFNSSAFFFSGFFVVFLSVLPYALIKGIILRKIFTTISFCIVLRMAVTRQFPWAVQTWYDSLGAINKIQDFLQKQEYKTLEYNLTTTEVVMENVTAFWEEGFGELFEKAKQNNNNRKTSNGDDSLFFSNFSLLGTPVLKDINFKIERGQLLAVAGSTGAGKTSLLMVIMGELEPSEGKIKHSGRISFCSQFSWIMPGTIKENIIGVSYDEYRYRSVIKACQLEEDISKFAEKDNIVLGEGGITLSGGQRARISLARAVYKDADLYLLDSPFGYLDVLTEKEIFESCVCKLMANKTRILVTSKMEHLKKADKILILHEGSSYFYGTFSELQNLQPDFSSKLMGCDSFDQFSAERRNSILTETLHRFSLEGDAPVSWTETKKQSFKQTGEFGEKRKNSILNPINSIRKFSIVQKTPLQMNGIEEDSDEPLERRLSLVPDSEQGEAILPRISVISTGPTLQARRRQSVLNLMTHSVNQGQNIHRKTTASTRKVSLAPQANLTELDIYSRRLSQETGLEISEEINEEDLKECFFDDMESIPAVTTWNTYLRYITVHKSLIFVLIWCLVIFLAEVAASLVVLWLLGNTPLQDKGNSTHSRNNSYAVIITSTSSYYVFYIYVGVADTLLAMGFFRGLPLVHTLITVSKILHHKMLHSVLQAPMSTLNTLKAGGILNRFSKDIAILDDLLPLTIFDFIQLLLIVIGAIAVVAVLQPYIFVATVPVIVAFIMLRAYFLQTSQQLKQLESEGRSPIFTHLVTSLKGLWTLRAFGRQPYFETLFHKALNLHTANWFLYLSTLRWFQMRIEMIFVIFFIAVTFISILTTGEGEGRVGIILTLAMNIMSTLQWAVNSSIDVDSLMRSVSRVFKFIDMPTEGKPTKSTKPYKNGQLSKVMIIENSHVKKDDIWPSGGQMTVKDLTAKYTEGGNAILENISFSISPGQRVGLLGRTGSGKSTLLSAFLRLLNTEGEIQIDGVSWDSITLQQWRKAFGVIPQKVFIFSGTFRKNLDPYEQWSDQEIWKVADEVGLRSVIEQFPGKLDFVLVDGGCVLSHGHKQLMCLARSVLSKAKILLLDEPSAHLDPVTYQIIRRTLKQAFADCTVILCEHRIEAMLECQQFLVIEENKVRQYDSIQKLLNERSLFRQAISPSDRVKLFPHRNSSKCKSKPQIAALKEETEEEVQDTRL

Corr Activity (NAUC) (F508del CFTR [1]) | CoPo Activity (F508del CFTR [2]) | Structure (SMILES)
++ (NAUC 70-40% of positive control) | + (CoPo<40% of positive control) | CN(C(=O)Cn1nc(-c2cccc(F)c2)c2c(c1=O)CCO2)c1ccc2c(c1)OC(F)(F)O2 [Example 160]
+++ (NAUC>70% of positive control) | ++ (CoPo 70-40% of positive control) | CN(C(=O)Cn1nc(-c2cccc(F)c2)c2occc2c1=O)c1ccc2c(c1)OC(F)(F)O2 [Example 8]
+++ (NAUC>70% of positive control) | +++ (CoPo>70% of positive control) | CN(C(=O)Cn1nc(-c2cccc(C#N)c2)c2occc2c1=O)c1ccc2c(c1)OC(F)(F)O2 [Example 11]
+++ (NAUC>70% of positive control) | +++ (CoPo>70% of positive control) | CCN(C(=O)Cn1nc(-c2cccc(C#N)c2)c2[nH]cnc2c1=O)c1ccc2c(c1)OC(F)(F)O2 [Example 24]
+ (NAUC<40% of positive control) | O | CN(C(=O)Cn1nc(-c2cccc(F)c2)c2nc[nH]c2c1=O)c1ccc2c(c1)OC(F)(F)O2 [Example 21]
+++ (NAUC>70% of positive control) | + (CoPo<40% of positive control) | CCN(C(=O)Cn1nc(-c2cccc(F)c2)c2[nH]cnc2c1=O)c1ccc2c(c1)OC(F)(F)O2 [Example 25]
+++ (NAUC>70% of positive control) | +++ (CoPo>70% of positive control) | CCN(C(=O)Cn1nc(-c2cccc(C#N)c2)c2occc2c1=O)c1ccc2c(c1)OC(F)(F)O2 [Example 10]
+++ (NAUC>70% of positive control) | ++ (CoPo 70-40% of positive control) | CCN(C(=O)Cn1nc(-c2cccc(F)c2)c2c(c1=O)CCO2)c1ccc2c(c1)OC(F)(F)O2 [Example 161]
+ (NAUC<40% of positive control) | + (CoPo<40% of positive control) | CN(C(=O)Cn1nc(-c2cccc(C#N)c2)c2[nH]cnc2c1=O)c1ccc2c(c1)OC(F)(F)O2 [Example 23]
++ (NAUC 70-40% of positive control) | O | CN(C(=O)Cn1nc(-c2cccc(Cl)c2)c2[nH]cnc2c1=O)c1ccc2c(c1)OC(F)(F)O2 [Example 22]
+++ (NAUC>70% of positive control) | +++ (CoPo>70% of positive control) | CN(C(=O)Cn1nc(-c2cccc(Cl)c2)c2occc2c1=O)c1ccc2c(c1)OC(F)(F)O2 [Example 9]
+++ (NAUC>70% of positive control) | +++ (CoPo>70% of positive control) | CCN(C(=O)Cn1nc(-c2cccc(C#N)c2)c2occc2c1=O)c1ccc2c(c1)CCC2 [Example 12]
